Experimental data reported in US20200131249A1, “NOVEL PROTEINS AND USE THEREOF” (EVOLVERITAS KFT., priority 2017, published 2020).
pIC50, pKi: −log10 of the molar value. Where no end group is shown, it is not given here.

How the values were obtained:
porcine trypsin = porcine trypsin (Sus scrofa, UniProt P00761); details: Petersen 1996; read-out: KI towards porcine trypsin; cited from earlier work
human MASP-3 = target: T1, human MASP-3 (Homo sapiens, UniProt P48740); assay: KI determination on human MASP-3 catalytic fragment; assay type: biochemical; details: for pKi: catalytic fragment, Z-L-Lys-SBzl
T1 construct: catalytic enzyme fragments containing the three C-terminal domains: CCP1-CCP2-SP
T1 sequence (P48740 450-728 isoform P48740-2 limits assumed): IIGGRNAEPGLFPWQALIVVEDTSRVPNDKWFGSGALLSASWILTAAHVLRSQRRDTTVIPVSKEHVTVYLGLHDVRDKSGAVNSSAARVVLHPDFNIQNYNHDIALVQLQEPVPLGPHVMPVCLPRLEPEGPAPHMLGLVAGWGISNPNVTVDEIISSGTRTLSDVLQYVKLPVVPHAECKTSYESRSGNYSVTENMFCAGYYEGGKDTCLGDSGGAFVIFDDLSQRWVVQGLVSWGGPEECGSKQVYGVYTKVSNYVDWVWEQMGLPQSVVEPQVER
Procedure: (§1) The inhibition equilibrium constant (KI) of all four inhibitor variants produced was measured on human MASP-2 and rat MASP-2. Additionally, KI values were measured also on human MASP-1 and human MASP-3 to assess the specificity of the inhibitors amongst the MASP enzymes. KI values of the inhibitors on bovine trypsin, a pancreatic model enzyme was also measured.
(§2) For determining the KI of the inhibitors on MASP enzymes we used catalytic enzyme fragments containing the three C-terminal domains: CCP1-CCP2-SP. The synthetic substrate used in the measurements was Z-L-Lys-SBzl hydrochloride (Sigma, C3647), from which a 10 mM stock solution was prepared. The reactions were performed in a volume of 0.2 ml at room temperature in a buffer consisting of 20 mM HEPES; 145 mM NaCl; 5 mM CaCl2; 0.05% Triton-X100. The substrate cleaved by the enzyme entered into a reaction with the 5,5′-Dithiobis(2-nitrobenzoic acid) (DTNB, Ellman's reagent, Sigma—D8130) auxiliary substrate present in the solution in 2-fold excess to Z-L-Lys-SBzl. The release of the chromophore group created in this way was monitored via the change of absorbance at 410 nm using a BioTek Synergy H4 multimode microplate reader.
(§3) A dilution sequence was prepared from the individual inhibitors, the enzyme was added to it, and it was incubated for 2 hours at room temperature. The samples were transferred on a 96-well microtiter plate (Nunc 269620). The reactions were started by adding the mixture of the substrate and the auxiliary substrate to the samples. The concentration of the substrate and the length of the measuring period were chosen so that under the given conditions the enzyme should consume less than 10% of the substrate. In this case we used 250 μM Z-L-Lys-SBzl and 500 μM DTNB in the reactions. In the course of measuring, a method developed for the characterisation of tight-binding inhibitors was used (Empie, 1982). The concentration of the product was measured as a function of reaction time. The slope of the straight line determined for the initial phase of the reaction was normalised with the slope obtained for the uninhibited enzyme reaction, and this value was multiplied with the total enzyme concentration. As a result of this we obtained the free enzyme concentration, which was plotted as a function of the total inhibitor concentration and the Ki value was determined according to the following equation:
(§4) E=y=E0−(E0+x+Ki−(((E0+x+Ki)^2)−4*E0*x)^(½))/2,
(§5) where E is the free (uninhibited) enzyme concentration, and E0 is the total enzyme concentration. The stock concentration of the inhibitors was determined by titration with bovine trypsin of known concentration. The results were calculated as the average of parallel measurements.

human MASP-1 = target: T2, human MASP-1 (Homo sapiens, UniProt P48740); assay: KI determination on human MASP-1 catalytic fragment; assay type: biochemical; design: key to KI on human MASP-1: N.E.: not effective; details: for KI on human MASP-1: catalytic fragment, Z-L-Lys-SBzl
T2 construct: catalytic enzyme fragments containing the three C-terminal domains: CCP1-CCP2-SP
T2 sequence (P48740 449-699 limits assumed): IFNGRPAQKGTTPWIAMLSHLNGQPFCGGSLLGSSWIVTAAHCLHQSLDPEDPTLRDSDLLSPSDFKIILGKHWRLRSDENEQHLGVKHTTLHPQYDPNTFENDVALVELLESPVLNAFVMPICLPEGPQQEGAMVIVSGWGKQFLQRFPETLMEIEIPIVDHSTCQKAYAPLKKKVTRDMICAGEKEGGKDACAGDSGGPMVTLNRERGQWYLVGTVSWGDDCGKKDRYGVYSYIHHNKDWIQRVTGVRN
T2 sequence (P48740 298-448 partner limits assumed): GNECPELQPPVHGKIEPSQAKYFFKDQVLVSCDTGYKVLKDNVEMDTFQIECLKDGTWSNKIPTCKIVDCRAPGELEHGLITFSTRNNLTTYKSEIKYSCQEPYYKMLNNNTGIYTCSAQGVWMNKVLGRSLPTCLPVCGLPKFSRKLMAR
Procedure: as §1, §2, §3, §4, §5

MASP-2 = MASP-2 (Homo sapiens, UniProt O00187); design: host or cells: diluted serum; details: Wouters 2011; Keizer 2015; read-out: IC50 of MASP-2 inhibition in solid phase ELISA assay with diluted serum; cited from earlier work
Chain of MASP-2 (O00187 16-686, species assumed): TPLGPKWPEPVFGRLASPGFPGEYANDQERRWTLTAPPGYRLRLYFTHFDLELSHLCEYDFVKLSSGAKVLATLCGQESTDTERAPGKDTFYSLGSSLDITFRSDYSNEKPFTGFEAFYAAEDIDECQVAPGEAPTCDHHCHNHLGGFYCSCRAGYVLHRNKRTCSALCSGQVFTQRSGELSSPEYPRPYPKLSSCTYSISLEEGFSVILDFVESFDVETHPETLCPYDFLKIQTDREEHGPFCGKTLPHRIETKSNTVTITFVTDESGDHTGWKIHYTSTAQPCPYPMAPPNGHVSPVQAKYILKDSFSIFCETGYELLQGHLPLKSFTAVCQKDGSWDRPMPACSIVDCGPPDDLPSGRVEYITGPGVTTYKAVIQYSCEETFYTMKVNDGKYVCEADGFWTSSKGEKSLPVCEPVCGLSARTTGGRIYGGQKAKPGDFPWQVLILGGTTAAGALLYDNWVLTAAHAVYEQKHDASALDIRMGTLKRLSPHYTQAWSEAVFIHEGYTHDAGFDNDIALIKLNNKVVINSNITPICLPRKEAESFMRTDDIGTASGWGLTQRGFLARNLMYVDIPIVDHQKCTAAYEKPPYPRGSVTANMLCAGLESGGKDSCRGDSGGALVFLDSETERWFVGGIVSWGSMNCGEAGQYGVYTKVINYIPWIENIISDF

intrinsic pathway = assay: Activated partial thromboplastin time (APTT) in human plasma
Procedure: (§6) Blood coagulation measurements using blood plasma taken from healthy human individuals were also performed. From the blood obtained through venipuncture and treated with sodium citrate (3.8% wt/vol) the plasma was isolated by centrifugation (2,000 g, 15 minutes, Jouan CR412 centrifuge).
(§7) The effect of the protein variants of the present invention on the blood coagulation process was tested in three standard assays, the thrombin time, testing any direct effects on thrombin; prothrombin time, testing any effects on the extrinsic pathway; and the activated partial thromboplastin time, testing any effects on the intrinsic pathway. Blood was collected from a healthy individual by vein puncture after informed consent. The blood was treated with sodium-citrate (3.8% w/v) and centrifuged. All three assays were performed on the automated instrument Sysmex CA-1500 (Sysmex) with Innovin reagent (Dale Behring, Marburg, Germany).
(§8) The inhibitors were applied in a fivefold serial dilution with the highest final concentration being 36 μM. This value is 3-4 orders of magnitudes higher than the KI values of the three protein variants of the present invention on human MASP-2. Even at the highest concentration the protein variants of the present invention have only little effect in the APTT test and no effect in the PT and TT tests.

thrombin = assay: Thrombin time (TT) in human plasma
Procedure: as §6, §7, §8

rat MASP-2 = target: T3, rat MASP-2 (Rattus norvegicus, UniProt Q9JJS8); assay: KI determination on rat MASP-2 catalytic fragment; assay type: biochemical; details: KI ratio
T3 construct: made in house
T3 sequence (Q9JJS8 with tags, fused parts or gaps L506P/I507H/R622A): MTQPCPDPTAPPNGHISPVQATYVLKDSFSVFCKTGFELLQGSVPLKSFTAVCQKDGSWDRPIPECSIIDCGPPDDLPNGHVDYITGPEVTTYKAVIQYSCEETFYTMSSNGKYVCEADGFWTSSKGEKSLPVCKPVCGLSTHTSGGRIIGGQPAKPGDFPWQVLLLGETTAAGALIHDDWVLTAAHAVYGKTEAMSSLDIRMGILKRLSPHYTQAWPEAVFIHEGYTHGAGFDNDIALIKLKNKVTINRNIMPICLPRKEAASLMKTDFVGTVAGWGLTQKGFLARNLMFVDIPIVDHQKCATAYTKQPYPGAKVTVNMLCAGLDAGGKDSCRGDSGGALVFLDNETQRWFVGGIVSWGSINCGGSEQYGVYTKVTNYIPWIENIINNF
Procedure: as §1
For determining the KI of the inhibitors on MASP enzymes we used catalytic enzyme fragments containing the three C-terminal domains: CCP1-CCP2-SP. The synthetic substrate used in the measurements was Z-L-Lys-SBzl hydrochloride (Sigma, C3647), from which a 10 mM stock solution was prepared. […] The release of the chromophore group created in this way was monitored via the change of absorbance at 410 nm using a BioTek Synergy H4 multimode microplate reader.
A dilution sequence was prepared from the individual inhibitors, the enzyme was added to it, and it was incubated for 2 hours at room temperature. […] The concentration of the product was measured as a function of reaction time. The slope of the straight line determined for the initial phase of the reaction was normalised with the slope obtained for the uninhibited enzyme reaction, and this value was multiplied with the total enzyme concentration. […]

extrinsic pathway = assay: Prothrombin time (PT) in human plasma
Procedure: as §6, §7, §8

Chain of porcine trypsin (P00761 9-231): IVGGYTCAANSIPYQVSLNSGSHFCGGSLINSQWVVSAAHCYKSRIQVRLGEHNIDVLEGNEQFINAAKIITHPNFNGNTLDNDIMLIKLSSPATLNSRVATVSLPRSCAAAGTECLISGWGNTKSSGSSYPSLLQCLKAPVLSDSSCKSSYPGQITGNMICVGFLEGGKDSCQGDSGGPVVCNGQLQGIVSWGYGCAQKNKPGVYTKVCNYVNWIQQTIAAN

pKi (human MASP-3)	KI on human MASP-1 (human MASP-1)	Substance	APTT (intrinsic pathway; inhibitor 0.1 μM) [s]	APTT (intrinsic pathway; inhibitor 0.3 μM) [s]	APTT (intrinsic pathway; inhibitor 1.4 μM) [s]	APTT (intrinsic pathway; inhibitor 7.2 μM) [s]	APTT (intrinsic pathway; inhibitor 36.0 μM) [s]	TT (thrombin; inhibitor 0.1 μM) [s]	TT (thrombin; inhibitor 0.3 μM) [s]	TT (thrombin; inhibitor 1.4 μM) [s]	TT (thrombin; inhibitor 7.2 μM) [s]	TT (thrombin; inhibitor 36.0 μM) [s]	PT (extrinsic pathway; inhibitor 0.1 μM) [s]	PT (extrinsic pathway; inhibitor 0.3 μM) [s]	PT (extrinsic pathway; inhibitor 1.4 μM) [s]	PT (extrinsic pathway; inhibitor 7.2 μM) [s]	PT (extrinsic pathway; inhibitor 36.0 μM) [s]	also measured
< 4.52	N.E.	TFPI-D2 [reference compound]																pKi (porcine trypsin): 10.00; inhibition of MASP-3 (human MASP-3; result in words): No considerable inhibition; inhibition of MASP-1 (human MASP-1; result in words): No considerable inhibition; pIC50 (MASP-2): 5.00
< 4.52	N.E.	SEQ ID NO: 17: TFPI-D2 variant protein with inhibitor loop VCRAVKR (SEQ ID NO: 7) (KPDFCFLEEDPGVCRAVKRRYFYNNQTKQCERFKYGGCLGNMNNFETLEECKNICEDG; ends and bridges not checked; cysteine pairing not given here)	36.8	37.2	38.1	40.6	47.4	16.6	16.3	16.4	16.4	16.0	10.8	10.8	10.8	10.9	11.4	fold more potent than SGMI-2 on rat MASP-2 (rat MASP-2): about 3 fold
< 4.52	N.E.	SEQ ID NO: 11: TFPI-D2 variant protein with inhibitor loop FCRAVKR (SEQ ID NO: 1) (KPDFCFLEEDPGFCRAVKRRYFYNNQTKQCERFKYGGCLGNMNNFETLEECKNICEDG; ends and bridges not checked; cysteine pairing not given here)	36.3	36.5	37.0	39.3	46.0	16.5	16.6	16.7	16.4	16.0	10.7	10.8	11.0	11.0	11.4	
